Measured values from article PMC5979572, “Imine Deaminase Activity and Conformational Stability of UK114, the Mammalian Member of the Rid Protein Family Active in Amino Acid Metabolism” (International Journal of Molecular Sciences, 2018).

How the values were obtained:
[1] = target: T1, UK114 (Capra hircus, UniProt P80601); assay: decrease of semicarbazone formation rate, […] nm, imino acid generated in situ; assay type: biochemical; conditions: 50 mM sodium pyrophosphate pH 8.7, 25 °C, 10 mM semicarbazide, catalase
T1 construct: gene RIDA; full length 137 residues, recombinant from E. coli (pET-15b), N-terminal His-tag cut by thrombin leaving GSH before Met1; homotrimer
T1 sequence (P80601 1-137): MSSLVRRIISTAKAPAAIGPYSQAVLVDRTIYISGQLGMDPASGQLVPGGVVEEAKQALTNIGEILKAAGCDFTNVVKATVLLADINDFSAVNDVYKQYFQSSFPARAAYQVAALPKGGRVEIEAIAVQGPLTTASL

[2] = target: T2, D-amino acid oxidase (DAAO) (Sus scrofa, UniProt P00371); assay: H2O2 production (HRP / o-dianisidine) and semicarbazone formation; assay type: biochemical; conditions: 50 mM sodium pyrophosphate pH 8.7, 25 °C
T2 construct: gene DAO; native, purified from pig kidneys

[3] = target: the molecule itself; assay: SEC; analytical gel filtration on a calibrated Superdex 75 (10/30) column equilibrated with 0.9% NaCl; standards BSA dimer, BSA monomer, carbonic anhydrase, cytochrome c

T2 sequence (P00371 whole entry): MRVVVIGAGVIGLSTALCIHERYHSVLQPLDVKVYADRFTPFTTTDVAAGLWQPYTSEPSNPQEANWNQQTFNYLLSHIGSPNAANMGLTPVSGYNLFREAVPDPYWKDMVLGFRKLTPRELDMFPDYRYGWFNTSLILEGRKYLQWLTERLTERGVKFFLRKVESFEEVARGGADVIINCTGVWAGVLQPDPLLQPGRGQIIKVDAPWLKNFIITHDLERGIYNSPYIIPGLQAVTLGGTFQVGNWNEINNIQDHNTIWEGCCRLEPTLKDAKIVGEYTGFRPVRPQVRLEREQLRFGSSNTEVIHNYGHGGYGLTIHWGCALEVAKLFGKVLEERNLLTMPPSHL

## CC(=N)C(=O)O [2-iminopropionate]
[1]; imino acid from 5 mM L-Ala + LAAO or D-Ala + DAAO
  decrease of semicarbazone formation rate, 248 nm, imino acid generated in situ: the highest specificity is indeed observed with 2-iminopyruvate (2-iminopropionate)

## CC(C)C[C@@H](N)C(=O)O [D-Leu]
[2]
  H2O2 production (HRP / o-dianisidine) and semicarbazone formation: Semicarbazone formation was observed using D-Ala, D-Leu, but not D-Ser, D-Thr, or D-Lys

## CC(C)CC(=N)C(=O)O [imino acid derived from Leu]
[1]; imino acid from 5 mM L-Leu + LAAO or D-Leu + DAAO
  decrease of semicarbazone formation rate, 248 nm, imino acid generated in situ: UK114 activity using the imino acid produced by DAAO from D-Leu was indistinguishable

B1: recombinant goat UK114 (Capra hircus), thrombin-cleaved (enzyme, Capra hircus (goat))
chain: GSHMSSLVRRIISTAKAPAAIGPYSQAVLVDRTIYISGQLGMDPASGQLVPGGVVEEAKQALTNIGEILKAAGCDFTNVVKATVLLADINDFSAVNDVYKQYFQSSFPARAAYQVAALPKGGRVEIEAIAVQGPLTTASL
notes: they precede the initiator methionine of UK114; also called RidA; not shown: His6, N-terminal, cleaved
[3]
  stoichiometry N: 3
